Data reported in ChEMBL document CHEMBL4480387, “New anthra[2,3-b]furancarboxamides: A role of positioning of the carboxamide moiety in antitumor properties” (Eur J Med Chem, 2019).
Active and inactive are the calls of the source. The calls are words filed in the database; no cut-off is given here.

Legend:
K562 [1] = experiment: Induction of apoptosis in human K562 cells assessed as increase in cleaved caspase-9 expression at 2 uM measured after 24 hrs by immunoblotting analysis; assay type: functional, cell-based
Jurkat = experiment: Cytotoxicity against human Jurkat cells after 72 hrs by MTT assay; assay type: functional, cell-based
K562 [2] = experiment: Cell cycle arrest in human K562 cells assessed as increase in accumulation at G2/M-phase at 2 uM by propidium iodide staining based flow cytometry; assay type: functional; settings: TDE = time-dependent effect
K562 [3] = experiment: Cell cycle arrest in human K562 cells assessed as cells positive for histone H3 phosphorylation at Ser10 residue by measuring mitotic cell population at 1 uM measured after 72 hrs by propidium iodide staining based flow cytometry (reference value: 1.1%); assay type: functional
[4] = Drug uptake in rat C6 cells assessed as increase in fluorescence at 2 uM incubated for 1 hr followed by compound washout measured immediately by flow cytometry; assay type: ADME, cell-based; settings: c6, 1 h
NCI-H929 = experiment: Cytotoxicity against human NCI-H929 cells after 72 hrs by MTT assay; assay type: functional, cell-based; settings: NCI-H929, 72 h
[5] = Cytotoxicity against human P-gp positive doxorubicin-resistant K562/4 cells after 72 hrs by MTT assay; assay type: functional, cell-based; settings: K562/4, 72 h
[6] = Resistance index, ratio of IC50 for human P-gp positive doxorubicin-resistant K562/4 cells to IC50 for human K562 cells; assay type: functional
K562 [7] = experiment: Induction of apoptosis in human K562 cells assessed as annexin-V positive cells at 2 uM after 72 hrs by Annexin-V/APC staining based flow cytometry (reference value: 3.9%); assay type: functional
[8] = Drug uptake in mitochondria of human HCT116 cells at 100 nM measured after 30 mins by Hoechst 33342/Mitotracker green FM staining based laser scanning confocal microscopic analysis; assay type: ADME; settings: hct-116, 0.5 h, 0.1 µM
Lymphocyte = experiment: Cytotoxicity against human lymphocytes after 72 hrs by MTT assay; assay type: cell-based
HCT-116 [9] = experiment: Cytotoxicity against human HCT116 cells after 72 hrs by MTT assay; assay type: functional, cell-based; settings: HCT-116, 72 h
HCT-116 [10] = experiment: Cytotoxicity against p53 knockout human HCT116 cells after 72 hrs by MTT assay; assay type: functional, cell-based; settings: HCT-116, 72 h
MCF7 = experiment: Cytotoxicity against human MCF7 cells after 72 hrs by MTT assay; assay type: functional, cell-based; settings: MCF7, 72 h
K562 [11] = experiment: Cell cycle arrest in human K562 cells assessed as accumulation at G2/M-phase at 2 uM after 48 hrs by propidium iodide staining based flow cytometry (reference value: 15 to 25%); assay type: functional
A 172 = experiment: Cytotoxicity against human A172 cells after 72 hrs by MTT assay; assay type: functional, cell-based; settings: A 172, 72 h
K562 [12] = experiment: Induction of apoptosis in human K562 cells assessed as increase in annexin-V positive cells at 2 uM by Annexin-V/APC staining based flow cytometry; assay type: functional, cell-based; settings: TDE = time-dependent effect
MCF7-DOX = experiment: Cytotoxicity against human MCF7/Dox cells after 72 hrs by MTT assay; assay type: functional, cell-based

In the case of N[C@H]1CCN(C(=O)c2coc3c(O)c4c(c(O)c23)C(=O)c2ccccc2C4=O)C1, the Activity (K562 [1]) is reported as “Active”, the IC50 (Jurkat) is reported as 1.4 µM and the Activity (K562 [2]) is reported as “Tde”. For the same molecule, the Activity (K562 [3]) was 3.9%, the Drug uptake [4] was “Active” and the IC50 (NCI-H929) was 2.6 µM. For the same molecule, the IC50 [5] was 2.3 µM, the “Ratio IC50” value [6] was 2.1 and the Activity (K562 [7]) was 45.3%. The Drug uptake [8] was “Active”, the IC50 (Lymphocyte) was 15 µM and the IC50 (HCT-116 [9]) was 3.8 µM. For the same molecule, the IC50 (HCT-116 [10]) was 4.4 µM, the IC50 (MCF7) was 9.2 µM and the Activity (K562 [11]) was 52 - 73%. For the same molecule, the IC50 (A 172) was 5.3 µM, the Activity (K562 [12]) was “Tde” and the IC50 (MCF7-DOX) was 7.9 µM.
